# Tested on: SKBR-3 cell line (human breast cancer)
# Test: Cytotoxicity Assay (Cell titer glo, 72 h), SKBR-3
# Type: cell-based
# Conditions: for IC50: Homo sapiens, SK-BR-3, free payloads, 72 hours; for Normalized IC50 (PL IC50/DXD IC50): ratio of payload IC50 to DXD control IC50
# Experimental: Day 1: 2,000 cells/well were plated and incubated at 37° C. overnight.
# Day 2: Payload/ADC/vehicle control dilutions were made in respective media and added to cells. Volume added: 50 uL to each well. Starting treatment concentration was 1 mM for free payloads/1 μM for ADC's/10% for vehicle control and then diluted 10-fold down for a total of 11 treatment dilutions. Each concentration was analyzed in triplicates. Media-only wells were used as a control to calculate percent viability.
# Day 5: Cell titer glow reagent (volume: 50 uL) was added to each well, the plate was shaken for 5 mins and the luminescence was recorded. Drug Treatment Time: 72 hours. Data Analysis: Percent viability was calculated by dividing the luminescence signal obtained for each treated well by the untreated well (media-only control) and multiplying by 100. Data was next transformed using X=Log (x) and then analyzed with nonlinear regression (curve fit), Dose Response inhibition−log (inhibitor) vs response (3 parameters) using PRISM software to determine the IC50 value.
Structure (SMILES),IC50 [nM],Normalized IC50 (PL IC50/DXD IC50)
CC[C@@]1(O)C(=O)OCc2c1cc1n(c2=O)Cc2c-1nc1cc(F)c(C)cc1c2Cn1cc(-c2cc(F)cnc2N)nn1 [Payload 46],3.68,0.24
CC[C@@]1(O)C(=O)OCc2c1cc1n(c2=O)Cc2c-1nc1cc(F)c(C)cc1c2Cn1cc(-c2cccc(N)n2)nn1 [Payload 48],40.2,
CC[C@@]1(O)C(=O)OCc2c1cc1n(c2=O)Cc2c-1nc1cc(F)c(C)cc1c2Cn1cc(C2(NC(=O)CO)CC2)nn1 [Payload 63],41,44.21
CC[C@@]1(O)C(=O)OCc2c1cc1n(c2=O)Cc2c-1nc1cc(F)c(C)cc1c2Cn1cc(CNC)nn1 [Payload 6],690,94.92
CC[C@@]1(O)C(=O)OCc2c1cc1n(c2=O)Cc2c-1nc1cc(F)c(C)cc1c2Cn1cc(CN)nn1 [Payload 5],81.5,18.99
CC[C@@]1(O)C(=O)OCc2c1cc1n(c2=O)Cc2c-1nc1cc(F)c(C)cc1c2Cn1cc(C(C)NC(=O)CO)nn1 (stereo partly drawn) [Payload 64],20.6,22.21
CC[C@@]1(O)C(=O)OCc2c1cc1n(c2=O)Cc2c-1nc1cc(F)c(C)cc1c2Cn1cc(C2CCCN2)nn1 (stereo partly drawn) [Payload 57],18.3,12.80
CC[C@@]1(O)C(=O)OCc2c1cc1n(c2=O)Cc2c-1nc1cc(F)c(C)cc1c2Cn1cc(CCNC(=O)CO)nn1 [Payload 38],34.6,37.23
CC[C@@]1(O)C(=O)OCc2c1cc1n(c2=O)Cc2c-1nc1cc(F)c(C)cc1c2Cn1cc(CO)nn1 [Payload 2],80.9,9.01
CC[C@@]1(O)C(=O)OCc2c1cc1n(c2=O)Cc2c-1nc1cc(F)c(C)cc1c2Cn1nncc1CNC [Payload 9],94.6,13.01
CC[C@@]1(O)C(=O)OCc2c1cc1n(c2=O)Cc2c-1nc1cc(F)c(C)cc1c2Cn1cc(-c2cccnc2N)nn1 [Payload 49],8.14,1.30
CC[C@@]1(O)C(=O)OCc2c1cc1n(c2=O)Cc2c-1nc1cc(F)c(C)cc1c2Cn1cc(C(C)O)nn1 (stereo partly drawn) [Payload 11],194,45.22
CC[C@@]1(O)C(=O)OCc2c1cc1n(c2=O)Cc2c-1nc1cc(F)c(C)cc1c2Cn1cc(CCN)nn1 [Payload 36],1010,203.63
CC[C@@]1(O)C(=O)OCc2c1cc1n(c2=O)Cc2c-1nc1cc(F)c(C)cc1c2Cn1nnc(CO)c1CO [Payload 12],374,41.69
CC[C@@]1(O)C(=O)OCc2c1cc1n(c2=O)Cc2c-1nc1cc(F)c(C)cc1c2Cn1nncc1CO [Payload 3],107,11.97
CC[C@@]1(O)C(=O)OCc2c1cc1n(c2=O)Cc2c-1nc1cc(F)c(C)cc1c2Cn1nncc1CCO [Payload 65],134,18.50
CC[C@@]1(O)C(=O)OCc2c1cc1n(c2=O)Cc2c-1nc1cc(F)c(C)cc1c2Cn1cc(CCCNC(=O)CO)nn1 [Payload 68],17.6,19.01
CC[C@@]1(O)C(=O)OCc2c1cc1n(c2=O)Cc2c-1nc1cc(F)c(C)cc1c2Cn1cc(CN2CCCCC2CO)nn1 (stereo partly drawn) [Payload 54],8.94,6.24
CC[C@@]1(O)C(=O)OCc2c1cc1n(c2=O)Cc2c-1nc1cc(F)c(C)cc1c2Cn1cc(CN2CCNCC2)nn1 [Payload 22],102,20.02
CC[C@@]1(O)C(=O)OCc2c1cc1n(c2=O)Cc2c-1nc1cc(F)c(C)cc1c2Cn1cc(COCCN)nn1 [Payload 55],25.2,17.60
CC[C@@]1(O)C(=O)OCc2c1cc1n(c2=O)Cc2c-1nc1cc(F)c(C)cc1c2Cn1cc(-c2ccccc2N)nn1 [Payload 19],22.4,4.96
CC[C@@]1(O)C(=O)OCc2c1cc1n(c2=O)Cc2c-1nc1cc(F)c(C)cc1c2Cn1cc(C2(N)CC2)nn1 [Payload 47],33.2,4.86
CC[C@@]1(O)C(=O)OCc2c1cc1n(c2=O)Cc2c-1nc1cc(F)c(C)cc1c2Cn1cc(C(C)N)nn1 (stereo partly drawn) [Payload 50],18.6,3.72
CC[C@@]1(O)C(=O)OCc2c1cc1n(c2=O)Cc2c-1nc1cc(F)c(C)cc1c2Cn1cc(-c2ccc(N)cc2)nn1 [Payload 13],30.8,6.84

Structure (SMILES),IC50 [nM],Normalized IC50 (PL IC50/DXD IC50)
CC[C@@]1(O)C(=O)OCc2c1cc1n(c2=O)Cc2c-1nc1cc(F)c(C)cc1c2Cn1cc(CNC(=O)OC(C)(C)C)nn1 [Payload 4],126,14.03
CC[C@@]1(O)C(=O)OCc2c1cc1n(c2=O)Cc2c-1nc1cc(F)c(C)cc1c2Cn1cc(CCNC)nn1 [Payload 37],50.8,3.32
CC[C@@]1(O)C(=O)OCc2c1cc1n(c2=O)Cc2c-1nc1cc(F)c(C)cc1c2Cn1cc(C2CCCN2C(=O)CO)nn1 (stereo partly drawn) [Payload 61],211,177.62
CC[C@@]1(O)C(=O)OCc2c1cc1n(c2=O)Cc2c-1nc1cc(F)c(C)cc1c2Cn1cc(-c2cccc(N)c2)nn1 [Payload 16],38.5,8.55
CC[C@@]1(O)C(=O)OCc2c1cc1n(c2=O)Cc2c-1nc1cc(F)c(C)cc1c2Cn1cc(-c2ccc(NC(=O)CO)cc2)nn1 [Payload 15],25.8,27.79
CC[C@@]1(O)C(=O)OCc2c1cc1n(c2=O)Cc2c-1nc1cc(F)c(C)cc1c2Cn1cc(CCCO)nn1 [Payload 59],4.03,4.84
CC[C@@]1(O)C(=O)OCc2c1cc1n(c2=O)Cc2c-1nc1cc(F)c(C)cc1c2Cn1nncc1CN [Payload 8],16.5,1.84
CC[C@@]1(O)C(=O)OCc2c1cc1n(c2=O)Cc2c-1nc1cc(F)c(C)cc1c2Cn1cc(C(C)(C)N)nn1 [Payload 51],15.3,3.05
CC[C@@]1(O)C(=O)OCc2c1cc1n(c2=O)Cc2c-1nc1cc(F)c(C)cc1c2Cn1cc(CN2CCOC(CNC(=O)CO)C2)nn1 (stereo partly drawn) [Payload 62],2040,1714.88
CC[C@@]1(O)C(=O)OCc2c1cc1n(c2=O)Cc2c-1nc1cc(F)c(C)cc1c2Cn1cc(-c2ccc(NC(=O)CN)cc2)nn1 [Payload 67],9.15,0.60
CC[C@@]1(O)C(=O)OCc2c1cc1n(c2=O)Cc2c-1nc1cc(F)c(C)cc1c2Cn1cc(CN2CCC(CO)CC2)nn1 [Payload 23],1250,199.52
CC[C@@]1(O)C(=O)OCc2c1cc1n(c2=O)Cc2c-1nc1cc(F)c(C)cc1c2Cn1cc(-c2ccccc2NC(=O)CN)nn1 [Payload 66],54.7,3.58
CC[C@@]1(O)C(=O)OCc2c1cc1n(c2=O)Cc2c-1nc1cc(F)c(C)cc1c2Cn1cc(CNC(=O)CN)nn1 [Payload 32],336,21.94
CC[C@@]1(O)C(=O)OCc2c1cc1n(c2=O)Cc2c-1nc1cc(F)c(C)cc1c2Cn1cc(COC2CCCCO2)nn1 (stereo partly drawn) [Payload 1],77.8,8.67
CC[C@@]1(O)C(=O)OCc2c1cc1n(c2=O)Cc2c-1nc1cc(F)c(C)cc1c2Cn1cc(-c2ccc(N)nc2)nn1 [Payload 52],18,2.88
CC[C@@]1(O)C(=O)OCc2c1cc1n(c2=O)Cc2c-1nc1cc(F)c(C)cc1c2Cn1cc(CCCN)nn1 [Payload 53],18,3.60
CC[C@@]1(O)C(=O)OCc2c1cc1n(c2=O)Cc2c-1nc1cc(F)c(C)cc1c2Cn1cc(CN2CCOC(CN)C2)nn1 (stereo partly drawn) [Payload 58],30.5,23.79
CC[C@@]1(O)C(=O)OCc2c1cc1n(c2=O)Cc2c-1nc1cc(F)c(C)cc1c2Cn1cc(CN2CCCC(N)C2)nn1 (stereo partly drawn) [Payload 33],32.9,22.96
CC[C@@]1(O)C(=O)OCc2c1cc1n(c2=O)Cc2c-1nc1cc(F)c(C)cc1c2Cn1cc(C(C)(C)NC(=O)CO)nn1 [Payload 69],95.8,104.13
CC[C@@]1(O)C(=O)OCc2c1cc1n(c2=O)Cc2c-1nc1cc(F)c(C)cc1c2Cn1cc(CN2CCN(C(=O)CO)CC2)nn1 [Payload 60],284,338.2
CC[C@@]1(O)C(=O)OCc2c1cc1n(c2=O)Cc2c-1nc1cc(F)c(C)cc1c2Cn1cc(CN2CCCC(CO)C2)nn1 (stereo partly drawn) [Payload 56],10.1,7.05
CC[C@@]1(O)C(=O)OCc2c1cc1n(c2=O)Cc2c-1nc1cc(F)c(C)cc1c2Cn1cc(CCO)nn1 [Payload 39],4.63,0.92
CC[C@@]1(O)C(=O)OCc2c1cc1n(c2=O)Cc2c-1nc1cc(F)c(C)cc1c2Cn1cc(CNC(=O)CO)nn1 [Payload 7],1830,203.99
